Experimental findings from article PMC6017431, “Role of Cationic Side Chains in the Antimicrobial Activity of C18G” (Molecules : A Journal of Synthetic Chemistry and Natural …, 2018) are described below.

Read-outs that look alike come from different tables or passages of the source. Non-standard residues stand in square brackets, D forms with d. Residues, ends and D or L forms follow the SMILES beside them. No end group written: not given here. Dap = NC[C@H](N)C(=O)O

Experiment [1] deals with S. aureus ATCC: 27660. It counts as cell-based, Staphylococcus aureus. How it is done: (§1) Each bacterial strain was streaked onto LB–Miller agar (BD-Difco, Franklin Lakes, NJ, USA) plates from a frozen stock collection (E. coli D31 [63] S. aureus ATCC: 27660, B. subtilis ATCC: 6051, P. aeruginosa PAO1 [17], and A. baumannii ATCC: 19606). After incubation to allow colony growth, plates stored in a refrigerator at 4 °C. Overnight cultures were inoculated with a single colony of each bacterial strain into fresh LB or Mueller Hinton broth (MH, BD-Difco) in sterile glass test tubes. Inoculated samples were placed in a 37 °C shaking incubator (250 rpm) for ~18 h. After the overnight incubation, a 1:200 dilution of the culture was made in fresh LB or MH for use in subsequent experiments.
(§2) Bacterial growth inhibition was investigated using the standard minimal inhibitory concentration (MIC) assay. Cultures of bacteria were grown as described above, subsequently diluted to ~10^5 cfu/mL in MH media. Subsequently, 90 μL of this diluted culture was added to wells of a sterile 96-well plate containing serially diluted aliquots of the peptides for a final volume in the well of 100 μL. The plate was covered and incubated at 37 °C for 18 h. After incubation the OD600 was measured with a Spectramax M5 multimode plate reader. Next, the minimal bactericidal concentration (MBC) was determined by taking 1 μL of culture from each well on the plate corresponding to peptide concentrations at and above the MIC and plating on a fresh LB-agar plate. The plate incubated overnight at 37 °C, and MBC was determined from the presence or absence of growth on each spot.

Experiment [2] concerns B. subtilis ATCC: 6051. It counts as cell-based, Bacillus subtilis. How it is done:
as §1, §2

Experiment [3] deals with E. coli outer membrane. As to the kind of experiment: E. coli outer membrane permeabilization (β-lactamase / nitrocefin). The class given is cell-based. The settings on record: E. coli D31 in PBS, peptide up to 15 µM, 30 min exposure, absorbance 486 nm, at least 3 replicates. How it is done: Permeabilization of the E. coli outer membrane is monitored using the periplasmic enzyme β-lactamase and the chromogenic substrate nitrocefin. […] The full time course of the permeabilization assay is shown in the supplementary files (Figure S1).
(§3) Figure 4 E. coli membrane permeabilization. Chromogenic substrate breakdown after 30 min of exposure to peptides. (A) Outer membrane permeabilization assayed by nitrocefin breakdown. (B) Inner membrane permeabilization assayed by ONPG breakdown. In both panels colors represent C18G (green), C18G-Arg (red), C18G-His (gray), C18G-Orn (orange), C18G-Dap (blue).
Permeabilization of the E. coli outer membrane was performed as described previously. Briefly, a single colony of E. coli D31 was inoculated in LB Broth (Difco) containing […] ampicillin and allowed to grow at 37 °C with shaking overnight. The culture was diluted 1:200 in LB-Amp and incubated at 37 °C until the OD600 was ~0.2. The culture was subsequently centrifuged at 2500 rpm for 15 min. The pellet was resuspended in an equal volume of PBS and added to a 96-well plate containing serially diluted peptides or polymyxin B (positive control). Immediately before reading, nitrocefin was added to the wells (final concentration 0.25 mg/mL) and mixed by pipetting. The sample absorbance was measured at 486 nm for 90 min. All assays were performed at least in triplicate.

Experiment [4] relates to E. coli inner membrane. As to the kind of experiment: E. coli inner membrane permeabilization (β-galactosidase / ONPG). The settings on record: peptide up to 15 µM, 30 min time point, absorbance 420 nm, at least 3 replicates. It counts as cell-based. How it is done:
as §3
Permeabilization of the E. coli inner membrane is monitored with the cytoplasmic enzyme β-galactosidase and the chromogenic substrate ortho-nitrophenyl-β-galactoside (ONPG). This assay in conceptually similar to the outer membrane assay described above, but is focused only on the permeability of the inner membrane. The results are shown in Figure 4B for the 30 min time point of the assay, and the full time course is shown in the supplementary figures (Figure S2).
Inner membrane permeabilization was performed as described previously. The procedure follows that of the outer membrane permeabilization assay, described above, with several modifications. Bacteria were grown overnight in LB media lacking Amp, and dilutions were made in LB supplemented with IPTG. Assay plates were prepared the same, except that cells were not centrifuged before the assay, and were added to the plate directly in the culture medium. Positive control for the inner membrane assay was the cationic detergent CTAB. The substrate was ONPG dissolved in Z-buffer added to a final concentration 0.6 mg/mL in the wells. The sample absorbance was measured at 420 nm for 90 min. All assays were performed at least in triplicate

Experiment [5] deals with S. aureus membrane. As to the kind of experiment: S. aureus membrane permeabilization (propidium iodide, flow cytometry). The settings on record: 30 min, relative to CTAB positive control. The class given is cell-based. How it is done: The membrane architecture varies greatly between Gram-positive and Gram-negative bacteria. The ability of the peptides to permeabilize a Gram-positive bacterial membrane was also investigated; however, in this case, the use of a bacterial enzyme and chromogenic substrate was not possible. Instead, membrane permeability was assessed using the DNA binding fluorophore propidium iodide (PI). The PI molecule is generally impermeable across the cell membrane under normal conditions, but upon permeabilization, PI can readily cross the membrane and bind to DNA, resulting in a dramatic increase in fluorescence emission intensity.
Figure 5 Membrane permeabilization. (A) Permeabilization of S. aureus membranes by peptides. Cultures of S. aureus were incubated with varying concentrations of peptide and 3.75 µg/mL propidium iodide (PI). PI fluorescence was measured via flow cytometry after 30 min of exposure to peptides. Percent leakage was determined based on the positive control CTAB (data not shown). (B) Peptide induced hemolysis. Defibrinated sheep red blood cells were incubated for 1 h with varying concentrations of peptide or control at 37 °C in sterile PBS. After pelleting the remaining cells, the absorbance of the supernatant was measured at 415 nm to detect released hemoglobin. Percent leakage was determined based on the positive control CTAB (Figure S3). All data is the average of at least 3 replicates, where error bars represent the standard deviation.
Flow cytometry was used to identify cell permeability by incorporation of propidium iodide (PI) into S. aureus under various concentrations of CTAB detergent, C18G, C18G-Arg, C18G-His, C18G-Orn, C18G-Dap peptides using a BD FACSCelesta flow cytometer. Approximately 10,000 cells per sample in 100 µL of PBS, permeabilization reagent, and PI 5.6 μM solution, were incubated for 30 min or 45 min at 23 °C counted in duplicate, and fluorescent signal was evaluated Ex 488 nm laser, Em 575 filter. Percentage of cells found to be permeable for all samples was established by gating around cells on histogram illustrating PI signal with known complete permeabilization CTAB 102 µM.
(In flow cytometry, cells or beads pass a laser one at a time.)

Experiment [6] can be described thus: Trp fluorescence binding to lipid vesicles. The conditions noted are these: 2 µM peptide in PBS pH 7.0 titrated with SUVs up to 300 µM lipid, excitation 280 nm, 2-5 replicates. The source says: Based on the proposed mechanism of membrane disruption, the ability of the C18G peptides to interact with lipid vesicles was investigated. All of the sequences contain a Trp residue which can be used as a reporter of the local environment. As the peptide moves from the aqueous milieu to the bilayer surface, the Trp experiences a significant change in the polarity of the local environment. This change in environmental polarity results in a shift of the Trp emission spectrum from more red-shifted (aqueous) to more blue-shifted (bilayer bound). […] The shift in the emission spectrum can be quantified by changes in […] (λmax) or by a shift in the spectral barycenter.
Figure 2 Trp fluorescence emission to measure peptide binding to vesicles. […] Trp emission barycenter was calculated after each addition of vesicles and plotted as a function of total lipid concentration. […]
Measurements were performed on a JY-Horiba fluoromax4 instrument with emission and excitation slits set to 2.5 nm. For lipid binding/titration assays, samples were excited at 280 nm with emission measured over the range of 300–400 nm. […] The barycenter of the spectrum is an intensity-weighted average over the wavelengths measured, and Δbarycenter is the difference between the barycenter of the sample lacking lipid, and that of a given sample [32, 65]. […]

[7] abbreviates: MH media, ~10^5 cfu/mL, 37 °C, 18 h, OD600.

For the molecule ALWHHLLHHLLHSAHHLG-NH2 [C18G-His], in experiment [1] (ATCC: 27660, 18 h), the “S. aureus MBC” value is on record as 15 µM and the “S. aureus MIC” value came out at 15 µM. Besides, in experiment [2] (ATCC: 6051, 18 h), the “B. subtilis MBC” value is reported as more than 15 µM and the “B. subtilis MIC” value was 1.875 µM. Besides, the “Outer membrane permeabilization (nitrocefin breakdown)” value (shortened to “Outer membrane permeabilization”) in experiment [3] is listed as “almost no permeabilization of the outer membrane except at 15 µM”. For the same molecule, in experiment [4], the “Inner membrane permeabilization (ONPG breakdown)” value (shortened to “Inner membrane permeabilization”) is given as “little to no permeabilization”. Also, in experiment [5] (7.5 µM peptide), the “Percent leakage (PI) of S. aureus membrane” value (shortened to “Percent leakage (PI)”) is on record as more than 50%. In addition, the “Percent leakage (PI)” value in experiment [5] (15 µM peptide) was more than 50%. Further, the “Binding to 3:1 PC/PG lipid vesicles (shift of Trp emission barycenter)” value in experiment [6] is given as “bound anionic bilayers with higher affinity than zwitterionic bilayers”.
Take ALWRRLLRRLLRSARRLG-NH2 [C18G-Arg]: in experiment [1] (ATCC: 27660, 18 h), the “S. aureus MBC” value stood at 3.75 µM and the “S. aureus MIC” value was determined as 3.75 µM. In experiment [2] (ATCC: 6051, 18 h), the “B. subtilis MBC” value is on record as 1.875 µM and the “B. subtilis MIC” value came out at 1.875 µM. For the same molecule, the “Outer membrane permeabilization” value in experiment [3] was “near maximal permeabilization observed above 3.75 µM”. Also, the “Inner membrane permeabilization” value in experiment [4] is recorded as “induced less leakage”. Besides, the “Percent leakage (PI)” value in experiment [5] (down through 3.75 µM peptide) is reported as ~ 90%. In experiment [6], the “Binding to 100% PC lipid vesicles (shift of Trp emission barycenter)” value is on record as “significant increase in binding to zwitterionic PC membranes compared to C18G”.
Regarding ALWKKLLKKLLKSAKKLG-NH2 [C18G], the “S. aureus MBC” value in experiment [1] (ATCC: 27660, 18 h) came to 3.75 µM. Moreover, the “S. aureus MIC” value in experiment [1] (setting [7]) is reported as 1.875 µM. In addition, the “B. subtilis MBC” value in experiment [2] (1 µL from wells at and above MIC plated on LB-agar, overnight 37 °C) came out at 1.875 µM. The “B. subtilis MIC” value in experiment [2] (setting [7]) was found to be 1.875 µM. Moreover, the “Outer membrane permeabilization” value in experiment [3] is reported as “near maximal permeabilization observed above 3.75 µM”. In addition, the “Inner membrane permeabilization” value in experiment [4] was “highest degree of permeabilization”.
Consider `CC(C)C[C@H](NC(=O)[C@H](C)N)C(=O)N[C@@H](Cc1c[nH]c2ccccc12)C(=O)N[C@@H](CCCN)C(=O)N[C@@H](CCCN)C(=O)N[C@@H](CC(C)C)C(=O)N[C@@H](CC(C)C)C(=O)N[C@@H](CCCN)C(=O)N[C@@H](CCCN)C(=O)N[C@@H](CC(C)C)C(=O)N[C@@H](CC(C)C)C(=O)N[C@@H](CCCN)C(=O)N[C@@H](CO)C(=O)N[C@@H](C)C(=O)N[C@@H](CCCN)C(=O)N[C@@H](CCCN)C(=O)N[C@@H](CC(C)C)C(=O)NCC(N)=O` [C18G-Orn] (HELM PEPTIDE1{A.L.W.[Orn].[Orn].L.L.[Orn].[Orn].L.L.[Orn].S.A.[Orn].[Orn].L.G.[am]}$$$$V2.0), for which, in experiment [1] (ATCC: 27660, 18 h), the “S. aureus MBC” value was 1.875 µM and the “S. aureus MIC” value is 1.875 µM. In experiment [2] (ATCC: 6051, 18 h), the “B. subtilis MBC” value is recorded as 7.5 µM and the “B. subtilis MIC” value stood at 3.75 µM. Further, the “Outer membrane permeabilization” value in experiment [3] is “near maximal permeabilization observed above 3.75 µM”. For the same molecule, the “Inner membrane permeabilization” value in experiment [4] is “very little observed leakage”. Moreover, the “Percent leakage (PI)” value in experiment [5] (through 1.88 µM peptide) was more than 50%.
On to `CC(C)C[C@H](NC(=O)[C@H](C)N)C(=O)N[C@@H](Cc1c[nH]c2ccccc12)C(=O)N[C@@H](CN)C(=O)N[C@@H](CN)C(=O)N[C@@H](CC(C)C)C(=O)N[C@@H](CC(C)C)C(=O)N[C@@H](CN)C(=O)N[C@@H](CN)C(=O)N[C@@H](CC(C)C)C(=O)N[C@@H](CC(C)C)C(=O)N[C@@H](CN)C(=O)N[C@@H](CO)C(=O)N[C@@H](C)C(=O)N[C@@H](CN)C(=O)N[C@@H](CN)C(=O)N[C@@H](CC(C)C)C(=O)NCC(N)=O` [C18G-Dap] (H-ALW[Dap][Dap]LL[Dap][Dap]LL[Dap]SA[Dap][Dap]LG-NH2), for which, in experiment [1] (ATCC: 27660, 18 h), the “S. aureus MBC” value stood at 7.5 µM and the “S. aureus MIC” value is given as 7.5 µM. In experiment [1] (against S. aureus), the “Fold increase in MIC relative to the parent sequence” value was not above 4 fold. For the same molecule, in experiment [2] (ATCC: 6051, 18 h), the “B. subtilis MBC” value was determined as 1.875 µM and the “B. subtilis MIC” value is on record as 1.875 µM. Further, the “Outer membrane permeabilization” value in experiment [3] is reported as “permeabilization to a lesser extent”. Further, in experiment [4], the “Inner membrane permeabilization” value is listed as “little to no permeabilization”.
